Earlier results, collected in EP2229962A1, “Medical-surgical devices with antibacterial coating for human or animal implant and a method for their production” (Martelli, Laura, priority 2009, dated 2010).
Read-outs that look alike come from different tables or passages of the source.

## [Ag+] [Ag^+ ions, Ag^+]
Surrounding tissue
  concentration above which there are cytotoxic effects to the surrounding tissue: > 35 ppb
bacteria; 1 ppb equivalent to 1 µg/l
  concentration of Ag^+ ions needed to perform an antibacterial action: at least 1 ppb
bacteria; in the case of certain bacteria
  concentration of Ag^+ ions needed to perform an antibacterial action: ≥ 0.1 ppb
